Like-named read-outs stand apart in the source and are kept apart here.
How the values were obtained:
Type in all cases: cell-based, human
[1] = tested on: MCF-7 breast cancer cells; assay: MTS cell viability assay, MCF-7; details: for EC50: read-out: EC50 (effective concentration that resulted in 50% cell viability)
Method in brief: (§1)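 Two exposure schemes were used: a 1 h treatment followed by washing and 2 days' regrowth, and a 48 h continuous treatment. Viability was then measured colorimetrically with MTS reagent (4 h, 490 nm) relative to solvent controls.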

[2] = tested on: MDA-MB-231 breast cancer cells; assay: MTS cell viability assay, MDA-MB-231; details: read-out: EC50 (effective concentration that resulted in 50% cell viability)
Method in brief: as §1

[3] = tested on: ZR-75-1 breast cancer cells; assay: MTS cell viability assay, ZR-75-1; details: read-out: EC50 (effective concentration that resulted in 50% cell viability)
Method in brief: as §1

[4] = tested on: SK-BR-3 breast cancer cells; assay: MTS cell viability assay, SK-BR-3; details: for EC50: read-out: EC50 (effective concentration that resulted in 50% cell viability)
Method in brief: (§2)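 SK-BR-3 cells grown in MEM, DU145 and PC-3 cells in RPMI-1640, each with 10% FBS and 25 mM HEPES pH 7.4, plated 2 days to ~50% confluence. Exposure to increasing Pt complex or cisplatin/carboplatin concentrations for 1 h (washed, then 2 days recovery) or 48 h continuous. MTS absorbance at 490 nm after 4 h; viability as percent of control.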

A549 lung cancer cells = assay: MTS cell viability assay, A549; details: for EC50: read-out: EC50 (effective concentration that resulted in 50% cell viability)
Method in brief: as §1

[5] = tested on: T-47D breast cancer cells; assay: MTS cell viability assay, T-47D
Method in brief: as §1

[6] = tested on: HCC38 breast cancer cells; assay: MTS cell viability assay, HCC38; details: read-out: EC50 (effective concentration that resulted in 50% cell viability)
Method in brief: as §1

H520 lung cancer cells = assay: MTS cell viability assay, H520; details: read-out: EC50 (effective concentration that resulted in 50% cell viability)
Method in brief: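 Viability by MTS colorimetry (A490, 4 h incubation) as % of solvent control, after 1 h pulse plus 2-day recovery or 48 h continuous drug exposure.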

[7] = tested on: PC-3 prostate cancer cells; assay: MTS cell viability assay, PC-3; details: for EC50: read-out: EC50 (effective concentration that resulted in 50% cell viability)
Method in brief: as §2

[8] = tested on: DU145 prostate cancer cells; details: for EC50: read-out: EC50 (effective concentration that resulted in 50% cell viability)
Method in brief: as §2

[9] = MDA-MB-231, 1 h treatment, Table 3
[10] = ZR-75-1, 1 h treatment, Table 3
[11] = SK-BR-3, 1 h treatment, Table 3
[12] = 1 h treatment, Table 3, read-out: EC50 (effective concentration that resulted in 50% cell viability)
[13] = 48 h, Table 5, read-out: EC50 (effective concentration that resulted in 50% cell viability)

**Q.** With [NH2][Pt]([NH2])([Cl])[Cl] [CDDP, Cisplatin, reference compound] as the compound, how does the EC50 ([1]; MCF-7, 1 h treatment, Table 2) read?
**A.** Its EC50 is 900 ± 60 µM.

**Q.** What about the EC50 ([1]; MCF-7, 1 h treatment, Table 3) of the same compound?
**A.** Its EC50 is 900 ± 100 µM.

**Q.** What about the EC50 ([1]; MCF-7, 48 h, Table 5) of the same compound?
**A.** The EC50 was 34 ± 1 µM.

**Q.** And the EC50 ([1]; MCF-7, 48 h treatment, Table 4)?
**A.** The EC50 was 35 ± 1 µM.

**Q.** And the EC50 ([2]; MDA-MB-231, 1 h treatment, Table 2)?
**A.** Its EC50 is 50 ± 4 µM.

**Q.** What about the EC50 [2, 9] of the same compound?
**A.** Its EC50 is 50 ± 4 µM.

**Q.** And the EC50 ([2]; MDA-MB-231, 48 h, Table 5)?
**A.** Its EC50 is 21 ± 3 µM.

**Q.** And the EC50 ([2]; MDA-MB-231, 48 h treatment, Table 4)?
**A.** Its EC50 is 21 ± 3 µM.

**Q.** What about the EC50 ([3]; ZR-75-1, 1 h treatment, Table 2) of the same compound?
**A.** The EC50 was 260 ± 10 µM.

**Q.** And the EC50 [3, 10]?
**A.** The EC50 was 260 ± 10 µM.

**Q.** What about the EC50 ([3]; ZR-75-1, 48 h, Table 5) of the same compound?
**A.** The EC50 was 30 ± 8 µM.

**Q.** What about the EC50 ([3]; ZR-75-1, 48 h treatment, Table 4) of the same compound?
**A.** Its EC50 is 30 ± 8 µM.

**Q.** What about the EC50 ([4]; SK-BR-3, 1 h treatment, Table 2) of the same compound?
**A.** Its EC50 is 420 ± 80 µM.

**Q.** And the EC50 [4, 11]?
**A.** Its EC50 is 420 ± 80 µM.

**Q.** And the EC50 ([4]; SK-BR-3, 48 h, Table 5)?
**A.** Its EC50 is 23 ± 8 µM.

**Q.** And the EC50 ([4]; SK-BR-3, 48 h treatment, Table 4)?
**A.** Its EC50 is 23 ± 6 µM.

**Q.** What about the “anti-proliferative activity compared to cisplatin (in words)” value ([4]; SK-BR-3, one and 48 hours treatment (FIG. 8G)) of the same compound?
**A.** Its value is “concentration dependent decreased in cell viability”.

**Q.** What about the EC50 (A549 lung cancer cells; A549, 1 h treatment, Table 2) of the same compound?
**A.** Its EC50 is 900 ± 200 µM.

**Q.** And the EC50 (A549 lung cancer cells; A549, 1 h treatment, Table 3)?
**A.** The EC50 was 900 ± 200 µM.

**Q.** What about the EC50 (A549 lung cancer cells; A549, 48 h, Table 5) of the same compound?
**A.** Its EC50 is 500 ± 100 µM.

**Q.** What about the EC50 (A549 lung cancer cells; A549, 48 h treatment, Table 4) of the same compound?
**A.** Its EC50 is 500 ± 100 µM.

**Q.** What about the EC50 ([5]; 1 h treatment, Table 2, read-out: EC50 (effective concentration that resulted in 50% cell viability)) of the same compound?
**A.** Its EC50 is 900 ± 100 µM.

**Q.** What about the EC50 [5, 12] of the same compound?
**A.** Its EC50 is 900 ± 100 µM.

**Q.** And the EC50 [5, 13]?
**A.** Its EC50 is 35 ± 6 µM.

**Q.** And the EC50 ([5]; 48 h treatment, Table 4, read-out: EC50 (effective concentration that resulted in 50% cell viability))?
**A.** Its EC50 is 35 ± 6 µM.

**Q.** What about the EC50 ([6]; HCC38, 1 h treatment, Table 2) of the same compound?
**A.** Its EC50 is 300 ± 30 µM.

**Q.** What about the EC50 ([6]; HCC38, 1 h treatment, Table 3) of the same compound?
**A.** Its EC50 is 300 ± 30 µM.

**Q.** And the EC50 ([6]; HCC38, 48 h, Table 5)?
**A.** The EC50 was 30 ± 8 µM.

**Q.** What about the EC50 ([6]; HCC38, 48 h treatment, Table 4) of the same compound?
**A.** The EC50 was 30 ± 8 µM.

**Q.** What about the EC50 (H520 lung cancer cells; H520, 1 h treatment, Table 2) of the same compound?
**A.** The EC50 was 200 ± 17 µM.

**Q.** And the EC50 (H520 lung cancer cells; H520, 1 h treatment, Table 3)?
**A.** Its EC50 is 200 ± 17 µM.

**Q.** And the EC50 (H520 lung cancer cells; H520, 48 h, Table 5)?
**A.** Its EC50 is 24 ± 2 µM.

**Q.** What about the EC50 (H520 lung cancer cells; H520, 48 h treatment, Table 4) of the same compound?
**A.** The EC50 was 24 ± 2 µM.

**Q.** And the EC50 ([7]; PC-3, 1 h treatment, Table 2)?
**A.** Its EC50 is 200 ± 20 µM.

**Q.** And the EC50 ([7]; PC-3, 1 h treatment, Table 3)?
**A.** The EC50 was 200 ± 20 µM.

**Q.** What about the EC50 ([7]; PC-3, 48 h, Table 5) of the same compound?
**A.** The EC50 was 30 ± 1 µM.

**Q.** What about the EC50 ([7]; PC-3, 48 h treatment, Table 4) of the same compound?
**A.** The EC50 was 30 ± 1 µM.

**Q.** What about the “anti-proliferative activity compared to cisplatin (in words)” value ([7]; PC-3, one and 48 hours treatment (FIG. 8I)) of the same compound?
**A.** Its value is “concentration dependent decreased in cell viability”.

**Q.** And the “effect on cell viability (in words)” value ([8]; DU145, 1 hour treatment (FIG. 8A, top), up to 1 mM carboplatin, 100 μM Pt(IV)-1C, 50 μM Pt(IV)-2C)?
**A.** The value was “concentration dependent decrease in cell viability”.

**Q.** And the EC50 ([8]; DU145, 1 h treatment, Table 2)?
**A.** The EC50 was 400 ± 100 µM.

**Q.** What about the EC50 ([8]; DU145, 1 h treatment, Table 3) of the same compound?
**A.** The EC50 was 400 ± 100 µM.

**Q.** And the EC50 ([8]; DU145, 48 h, Table 5)?
**A.** The EC50 was 64 ± 8 µM.

**Q.** And the EC50 ([8]; DU145, 48 h treatment, Table 4)?
**A.** Its EC50 is 64 ± 8 µM.

**Q.** And the “anti-proliferative activity compared to cisplatin (in words)” value ([8]; DU145, one and 48 hours treatment (FIG. 8H))?
**A.** Its value is “concentration dependent decreased in cell viability”.

**Q.** What does the source list for CC(=O)[O][Pt]([Cl])([Cl])[O]C(C)=O.CCCCCOc1ccnc(-c2cc(OCCCCC)ccn2)c1 [Pt(IV)-5C, [Pt(IV)Cl2(OAc)2(4,4′-dipentoxy-2,2′-bipyridine)]]?
**A.** EC50 ([1]; MCF-7, 1 h treatment, Table 3): 2.9 ± 0.13 µM; EC50 ([1]; MCF-7, 48 h, Table 5): 2 ± 0.1 µM; EC50 [2, 9]: 1.8 ± 0.1 µM; EC50 ([2]; MDA-MB-231, 48 h, Table 5): 0.26 ± 0.01 µM; EC50 [3, 10]: 1.6 ± 0.1 µM; EC50 ([3]; ZR-75-1, 48 h, Table 5): 0.55 ± 0.07 µM; EC50 [4, 11]: 1.3 ± 0.6 µM; EC50 ([4]; SK-BR-3, 48 h, Table 5): 0.3 ± 0.03 µM; EC50 (A549 lung cancer cells; A549, 1 h treatment, Table 3): 6.6 ± 0.3 µM; EC50 (A549 lung cancer cells; A549, 48 h, Table 5): 2.2 ± 0.1 µM; EC50 [5, 12]: 2.3 ± 0.3 µM; EC50 [5, 13]: 0.248 ± 0.001 µM; EC50 ([6]; HCC38, 1 h treatment, Table 3): 3 ± 1 µM; EC50 ([6]; HCC38, 48 h, Table 5): 2.1 ± 0.3 µM; EC50 (H520 lung cancer cells; H520, 1 h treatment, Table 3): 3 ± 1 µM; EC50 (H520 lung cancer cells; H520, 48 h, Table 5): 1 ± 0.3 µM; EC50 ([7]; PC-3, 1 h treatment, Table 3): 1.7 ± 0.2 µM; EC50 ([7]; PC-3, 48 h, Table 5): 0.5 ± 0.2 µM; EC50 ([8]; DU145, 1 h treatment, Table 3): 1 ± 1 µM; EC50 ([8]; DU145, 48 h, Table 5): 0.34 ± 0.02 µM

**Q.** Which results are given for “[Pt(IV)Cl2(OAc)2(4,4′-dibutoxy-2,2′-bipyridine)] [Pt(IV)-4C]”?
**A.** effect on cell viability (in words) ([1]; MCF-7, 1 hour treatment, at the concentrations tested (FIG. 8F)): did not have any effect; EC50 ([1]; MCF-7, 1 h treatment, Table 3): > 25 µM; EC50 ([1]; MCF-7, 48 h, Table 5): 2.2 ± 0.1 µM; EC50 [2, 9]: 2.8 ± 0.1 µM; EC50 ([2]; MDA-MB-231, 48 h, Table 5): 1 ± 0.2 µM; EC50 [3, 10]: 2.9 ± 0.3 µM; EC50 ([3]; ZR-75-1, 48 h, Table 5): 0.7 ± 0.2 µM; EC50 [4, 11]: 4 ± 0.7 µM; EC50 ([4]; SK-BR-3, 48 h, Table 5): 0.44 ± 0.02 µM; effect on cell viability (in words) (A549 lung cancer cells; A549, 1 hour treatment, at the concentrations tested (FIG. 8E)): did not have any effect; EC50 (A549 lung cancer cells; A549, 1 h treatment, Table 3): > 25 µM; EC50 (A549 lung cancer cells; A549, 48 h, Table 5): 14 ± 1 µM; EC50 [5, 12]: 10 ± 1 µM; EC50 [5, 13]: 0.33 ± 0.07 µM; EC50 ([6]; HCC38, 1 h treatment, Table 3): 17 ± 3 µM; EC50 ([6]; HCC38, 48 h, Table 5): 2.1 ± 0.2 µM; EC50 (H520 lung cancer cells; H520, 1 h treatment, Table 3): 13 ± 5 µM; EC50 (H520 lung cancer cells; H520, 48 h, Table 5): 2.2 ± 0.1 µM; EC50 ([7]; PC-3, 1 h treatment, Table 3): 5 ± 3 µM; EC50 ([7]; PC-3, 48 h, Table 5): 1.1 ± 0.4 µM; EC50 ([8]; DU145, 1 h treatment, Table 3): 8 ± 7 µM; EC50 ([8]; DU145, 48 h, Table 5): 0.9 ± 0.2 µM

From US10316050B2, “PT (IV) complexes containing 4,4′-disubstituted-2,2′-bipyridyl and their use in cancer therapy” (THE BOARD OF REGENTS OF THE NEVADA SYSTEM OF HIGHER …, priority 2014, dated 2019)
